According to article PMC5799307, “Creation of a long-acting nanoformulated dolutegravir” (Nature Communications, 2018):

Test: Pharmacokinetics and biodistribution in Balb/cJ mice, single IM dose
Details: male, mouse, in vivo
Protocol: Male Balb/cJ mice (6–8 weeks of age; Jackson Labs, Bar Harbor, ME) were injected with NDTG or NMDTG (45 mg/kg DTG-eq.) intramuscularly (IM; caudal thigh muscle) in a volume of 40 µL/25 g mouse. For injections, NDTG and NMDTG were diluted to 28.1 mg DTG/mL in endotoxin-free water and 42.3 mg MDTG/mL in HEPES buffer, respectively. Twenty-five microliters of whole blood was collected by cheek puncture into 1 mL ACN at 1, 3, 7, 14, 21, 28, 35, 42, 49, and 56 days after drug administration. Animals were humanely euthanized using isoflurane followed by cervical dislocation at 28 and 56 days, and tissues (spleen, liver, lymph nodes, lungs, kidneys, gut-associated lymphoid tissue (GALT), and brain) were collected for drug quantitation. Drug concentration in whole blood and tissues was determined by UPLC-MS/MS using a Waters Acquity UPLC- Xevo TQ-S micro mass spectrometry system (Milford, MA). For blood analysis, 10 µL of internal standard (IS) solution was added to each sample. […] MDTG was quantified using a 7-min gradient of the same mobile phases at a flow rate of 0.35 mL/min. […] DTG and MDTG were detected at cone voltages of 10 V and 16 V and collision energies of 25 V and 44 V, respectively. […] Spectra were analyzed and quantified by MassLynx software version 4.1. Quantitation was based upon drug peak area to internal standard peak area ratios.

time prodrug was detectable in blood: ≤ 3 days
Compound: CCCCCCCCCCCCCC(=O)Oc1c2n(cc(C(=O)NCc3ccc(F)cc3F)c1=O)C[C@@H]1OCC[C@@H](C)N1C2=O [MDTG]
